The structures appear in SMILES notation.

The experiment deals with MAGE-A11:PCF11 (Homo sapiens (Human), UniProt P43364). As to the kind of experiment: TR-FRET single point screening at 15 μM. In kind it is binding. On the set-up: unit not given here. As to conditions: single point TR-FRET screening at 15 μM against MAGE-A11:PCF11. An excerpt: TR-FRET Assays and High-throughput Screen. Terbium-anti-GST antibody, 1 M Tris pH 7.5 1 M MgCl2 and 1 M DTT were purchased from Invitrogen (Carlsbad, CA), BSA was purchased from Sigma (St. Louis, MO). Dimethyl sulfoxide (DMSO) was purchased from Fisher Scientific (Pittsburgh, PA). Black 384-well low volume plates and 384-well polypropylene compound plates were purchased from Corning Incorporated (Tewksbury, MA). The St. Jude FDA drug and Bioactive library (11,293 chemicals), Drug-like library (10,073 chemicals) and Lead-like library (10,041 chemicals) were custom assembled and purchased from commercial sources including Sigma, Microsource (Gaylordsville, CT), selleckchem (Houston, TX), ChemDiv (San Diego, CA), ChemBridge (San Diego, CA), Enamine (Monmouth Jct., NJ), and Life Chemicals (Niagara-on-the-Lake, ON, Canada). They were arrayed (10 mM in DMSO) in 384-well polypropylene compound plates with columns 1, 2, 13 and 14 empty which were reserved for controls.
Chain of MAGE-A11:PCF11 (P43364 218-429): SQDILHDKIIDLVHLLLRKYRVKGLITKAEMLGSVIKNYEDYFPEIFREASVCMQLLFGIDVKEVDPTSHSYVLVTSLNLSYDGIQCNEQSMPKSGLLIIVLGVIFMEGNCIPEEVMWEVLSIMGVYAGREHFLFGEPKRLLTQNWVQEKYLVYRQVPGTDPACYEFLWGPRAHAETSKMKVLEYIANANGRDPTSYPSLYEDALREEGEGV
The TR-FRET assay buffer with a formula of 50 mM Tris pH 7.5, 20 mM MgCl2, 0.1 mg/ml BSA and 1 mM DTT was freshly prepared before each experiment. All TR-FRET assays were performed in black 384-well plates with 20 μl/well assay volume in the TR-FRET assay buffer at room temperature (approximately 25° C.). All peptides or compounds were solubilized in DMSO. To test the competitive activity of peptides or compounds against the interaction between GST-MAGEA11 MHD and FAM-PCF11_4 peptide, 10 μl/well peptide or compound at specified concentration was dispensed into a black 384-well low volume plate, followed by 5 μl/well FAM-PCF11_4 (800 nM), 5 μl/well Tb-anti-GST (20 nM) and GST-MAGEA11 MHD (20 nM). The assay components in each well was then mixed by shaking the plate on an IKA MTS 2/4 digital microtiter plate shaker (IKA Works; Wilmington, NC, USA) at 900 RPM for 1 minute. The plate was further centrifuged in an Eppendorf 5810 centrifuge with an A-4-62 swing-bucket rotor (Eppendorf AG, Hamburg, Germany) at 201 g (1000 rpm) for 30 seconds. The plate was then incubated for 90 min with a lid to avoid light exposure to the assay components. After incubation, the fluorescent emission signals at 520 nm and 490 nm channels of individual wells were measured with a PHERAstar FS plate reader (BMG Labtech; Durham, NC, USA) by using a 340 nm excitation filter, 100 μs delay time, and 200 μs integration time. The TR-FRET fluorescence emission ratio (TR-FRET signal) for each well was presented as 10 000×520 nm/490 nm, which was used directly for curve fitting, or further converted to % Inhibition based on the respective positive and negative controls. The graphic software GraphPad Prism 4.81 (GraphPad Software; La Jolla, CA, USA) was used to generate curves and derive IC50 values of tested peptides or compounds, if applicable.
TR-FRET screen for identifying MAGEA11 small molecule inhibitors was performed as follows. The primary one-concentration screening and subsequent 10 or 20-concentration dose response tests were accomplished with an automated High Throughput Screening system (HighRes Biosolutions, Beverly, MA)^30. In the primary screening, 15 μl/well FAM-PCF11_4 (267 nM) was first dispensed with a Multidrop Combi Reagent Dispenser (Thermo Fisher Scientific, Waltham, MA) to black 384-well low volume assay plates. The plates were spun down with a Velocity11 VSpin microplate centrifuge (Agilent Technologies, Santa Clara, CA). 30 nl/well of 10 mM compound/DMSO solutions, or DMSO alone, were transferred from compound plates (the St. Jude FDA drug and bioactive library, Drug-like library and Lead-like library) or a control plate to the assay plates with a Pin Tool (V&P Scientific, San Diego, CA). The compounds were arrayed in columns 3 to 12 and columns 15 to 24 of compound plates. The controls were arrayed in columns 1, 2, 13 and 14 of a compound plate. […]

On to `COc1ccc2ncc(S(=O)(=O)c3ccccc3)c(N3CCN(c4ccc(F)cc4)CC3)c2c1` [SJ000083978], for which the TR-FRET signal is given as −133.1. To `CCOc1ccc2ncc(S(=O)(=O)c3ccccc3)c(N3CCN(c4ccc(F)cc4)CC3)c2c1` [SJ000083979] belongs −181.3. Take `O=S(=O)(c1ccccc1)c1cnc2ccc(F)cc2c1N1CCN(c2ccc(F)cc2)CC1` [SJ000083980]: the TR-FRET signal is −11.08. To `COc1ccc(N2CCN(c3c(S(=O)(=O)c4ccccc4)cnc4ccc(C)cc34)CC2)cc1` [SJ000083981] belongs −37.97; to `COc1ccc(N2CCN(c3c(S(=O)(=O)c4ccccc4)cnc4ccc(F)cc34)CC2)cc1` [SJ000083982], −32.85.

`COc1ccc(N2CCN(c3c(S(=O)(=O)c4ccccc4)cnc4ccc(Cl)cc34)CC2)cc1` [SJ000083983]: the TR-FRET signal was −17.94. Compound `CN(C)c1cc(NC(=O)CN2CCOCC2)c2ccccc2n1` [SJ000111677] returned a TR-FRET signal of 4.988. The result for `CN(C)c1cc(NC(=O)CNC(C)(C)CC(C)(C)C)c2ccccc2n1` [SJ000111678] reads 10.62; that for `Cc1cc(NC(=O)CN2CCN(C(=O)c3ccco3)CC2)c2ccccc2n1` [SJ000111679], −1.072; that for `Cc1cc(NC(=O)CN2CCN(C)CC2)c2ccccc2n1` [SJ000111680], 4.647. To `CCc1nc2ccccc2c(NC(=O)CN2CCN(c3ccccc3)CC2)c1C` [SJ000111681] belongs 6.894. With `CCc1nc2ccccc2c(NC(=O)CN2CCCCC2)c1C` [SJ000111682], the TR-FRET signal came to 1.593. The result for `O=C(CN1CCN(C(=O)c2ccccc2)CC1)Nc1c2c(nc3ccccc13)N(c1cccc(Cl)c1)CC2` [SJ000111683] reads −264.3. Regarding `O=C(CN1CCN(C(c2ccccc2)c2ccccc2)CC1)Nc1c2c(nc3ccccc13)CCC2` [SJ000111684], the TR-FRET signal was found to be 11.85. Compound `COc1ccc(-c2csc(N3CCN(c4cc(C)nc5ccccc45)CC3)n2)cc1OC` [SJ000114009] returned a TR-FRET signal of −53.43. Consider `Cc1ccc(S(=O)(=O)c2cnc3ccccc3c2N2CCN(c3ccccc3)CC2)cc1` [SJ000117047], for which the TR-FRET signal is listed as −6.567. In turn, `COc1ccc2ncc(S(=O)(=O)c3ccc(C)cc3)c(N3CCN(c4ccccc4)CC3)c2c1` [SJ000117048] returned a TR-FRET signal of −85.57. Compound `CCOc1ccc2ncc(S(=O)(=O)c3ccc(C)cc3)c(N3CCN(c4ccccc4)CC3)c2c1` [SJ000117049] had a TR-FRET signal of −45.32. As for `Cc1ccc(S(=O)(=O)c2cnc3ccc(Cl)cc3c2N2CCN(c3ccccc3)CC2)cc1` [SJ000117050], the TR-FRET signal was −3.321. To `COc1ccc2ncc(S(=O)(=O)c3ccc(C)c(C)c3)c(N3CCN(c4ccccc4)CC3)c2c1` [SJ000117051] belongs −52.48; to `Cc1ccc(S(=O)(=O)c2cnc3ccc(F)cc3c2N2CCN(c3ccccc3)CC2)cc1C` [SJ000117052], −16.9. Turning to `CCc1ccc(S(=O)(=O)c2cnc3ccccc3c2N2CCN(c3ccccc3)CC2)cc1` [SJ000117053], the TR-FRET signal is listed as −21.21. For the compound `CCOc1ccc2ncc(S(=O)(=O)c3ccc(Cl)cc3)c(N3CCN(c4ccccc4)CC3)c2c1` [SJ000117054], the TR-FRET signal is reported as −446.9. Consider `O=S(=O)(c1ccc(Cl)cc1)c1cnc2ccc(F)cc2c1N1CCN(c2ccccc2)CC1` [SJ000117055], for which the TR-FRET signal worked out at 2.112. The result for `CCc1ccc2ncc(S(=O)(=O)c3ccc(OC)cc3)c(N3CCN(c4ccccc4)CC3)c2c1` [SJ000117056] reads −2.791. `Cc1ccc(S(=O)(=O)c2cnc3ccccc3c2N2CCN(c3ccc(F)cc3)CC2)cc1` [SJ000117057] had a TR-FRET signal of −20.61. To `Cc1ccc(S(=O)(=O)c2cnc3ccc(C)cc3c2N2CCN(c3ccc(F)cc3)CC2)cc1` [SJ000117058] belongs −4.068; to `COc1ccc2ncc(S(=O)(=O)c3ccc(C)cc3)c(N3CCN(c4ccc(F)cc4)CC3)c2c1` [SJ000117059], −118.5. For the compound `CCOc1ccc2ncc(S(=O)(=O)c3ccc(C)cc3)c(N3CCN(c4ccc(F)cc4)CC3)c2c1` [SJ000117060], the TR-FRET signal is recorded as −11.07. Take `Cc1ccc(S(=O)(=O)c2cnc3ccc(F)cc3c2N2CCN(c3ccc(F)cc3)CC2)cc1` [SJ000117061]: the TR-FRET signal is listed as −70.5. For `Cc1ccc(S(=O)(=O)c2cnc3ccccc3c2N2CCN(c3ccc(F)cc3)CC2)cc1C` [SJ000117062], the TR-FRET signal was −54.86. Turning to `O=S(=O)(c1ccc(F)cc1)c1cnc2ccc(Cl)cc2c1N1CCN(c2ccc(F)cc2)CC1` [SJ000117063], the TR-FRET signal is −4.205. The result for `CCc1ccc2ncc(S(=O)(=O)c3ccc(OC)cc3)c(N3CCN(c4ccc(F)cc4)CC3)c2c1` [SJ000117064] reads −9.084; that for `COc1ccccc1N1CCN(c2c(S(=O)(=O)c3ccc(C)cc3)cnc3ccccc23)CC1` [SJ000117065], −8.687; that for `COc1ccccc1N1CCN(c2c(S(=O)(=O)c3ccc(C)cc3)cnc3ccc(C)cc23)CC1` [SJ000117066], −92.89. The compound `COc1ccccc1N1CCN(c2c(S(=O)(=O)c3ccc(C)cc3)cnc3ccc(Cl)cc23)CC1` [SJ000117067] displayed a TR-FRET signal of −12.86. As for `COc1ccccc1N1CCN(c2c(S(=O)(=O)c3ccc(C)c(C)c3)cnc3ccccc23)CC1` [SJ000117068], the TR-FRET signal is listed as −5.706.

Take `CCc1ccc(S(=O)(=O)c2cnc3ccccc3c2N2CCN(c3ccccc3OC)CC2)cc1` [SJ000117069]: the TR-FRET signal is −47.44. The result for `COc1ccccc1N1CCN(c2c(S(=O)(=O)c3ccc(Cl)cc3)cnc3ccc(C)cc23)CC1` [SJ000117070] reads −15.37.

In the case of `COc1ccc(N2CCN(c3c(S(=O)(=O)c4ccccc4)cnc4ccc(OC)cc34)CC2)cc1` [SJ000117071], the TR-FRET signal is recorded as −32.67.

Regarding `COc1ccc(N2CCN(c3c(S(=O)(=O)c4ccc(C)cc4)cnc4ccc(Cl)cc34)CC2)cc1` [SJ000117072], the TR-FRET signal is on record as −5.838. Regarding `COc1ccc(N2CCN(c3c(S(=O)(=O)c4ccc(C)c(C)c4)cnc4ccc(F)cc34)CC2)cc1` [SJ000117073], the TR-FRET signal is given as −13.26.

For the compound `CCc1ccc(S(=O)(=O)c2cnc3ccccc3c2N2CCN(c3ccc(OC)cc3)CC2)cc1` [SJ000117074], the TR-FRET signal is −11.2. In turn, `COc1ccc(N2CCN(c3c(S(=O)(=O)c4ccc(Cl)cc4)cnc4ccc(C)cc34)CC2)cc1` [SJ000117075] registered a TR-FRET signal of −3.122.

In the case of `COc1ccc2ncc(S(=O)(=O)c3ccc(C)cc3)c(N3CCN(c4ccccc4F)CC3)c2c1` [SJ000117076], the TR-FRET signal is reported as 6.02. In turn, `CCOc1ccc2ncc(S(=O)(=O)c3ccc(C)cc3)c(N3CCN(c4ccccc4F)CC3)c2c1` [SJ000117077] came in with a TR-FRET signal of 5.159. With `COc1ccc2ncc(S(=O)(=O)c3ccc(C)c(C)c3)c(N3CCN(c4ccccc4F)CC3)c2c1` [SJ000117078], the TR-FRET signal is listed as −8.289. To `CCc1ccc(S(=O)(=O)c2cnc3ccccc3c2N2CCN(c3ccccc3F)CC2)cc1` [SJ000117079] belongs −56.58; to `Cc1ccc(S(=O)(=O)c2cnc3ccccc3c2N2CCN(c3ccc(C)cc3C)CC2)cc1` [SJ000117080], 3.172.

These data come from patent US20240246941A1, “SUBSTITUTED 4-(3-AMINOPROP-1-YL)AMINOQUINOLINE ANALOGS AS MODULATORS OF MELANOMA-ASSOCIATED ANTIGEN 11 UBIQUITIN LIGASE” (ST. JUDE CHILDREN'S RESEARCH HOSPITAL, INC., priority 2020, published 2024).
